Patent publication US5789434A, “Derivatives of substituted 4-biarylbutyric acid as matrix metalloprotease inhibitors” (priority 1995, dated 1998)
Counter-ions that a name gives are not always drawn.

Tests used:
MMP-3 = target: T1, MMP-3 (Homo sapiens, UniProt P08254); test: Primary Thiopeptilide MMP-3 Inhibition Assay; format: biochemical; settings: for inhibition at 5 µM: read-out: MMP-3 Thiopep. % inhibition; for IC50: pH 6.5, 13 nM stromelysin, x (n) = average of n determinations, read-out: MMP-3 Thiopep. IC50
T1 construct: Truncated Prostromelysin-257 was expressed in a soluble form in E.coli; made in house; host or cells: E. coli
T1 sequence (P08254 100-274 limits assumed): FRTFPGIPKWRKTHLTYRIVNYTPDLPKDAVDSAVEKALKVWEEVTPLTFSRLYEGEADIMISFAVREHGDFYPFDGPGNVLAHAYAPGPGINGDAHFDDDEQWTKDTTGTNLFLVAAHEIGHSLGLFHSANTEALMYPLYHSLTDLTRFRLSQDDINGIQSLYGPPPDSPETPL
Protocol: Enzyme: recombinant stromelysin expressed in E.coli and purified as described above. […] The protocols for the assay of compounds as stromelysin inhibitors was the same as that used for MMP-9 except that the assay buffer was 50 mM MES, pH 6.5 containing 150 mM NaCl, 10 mM CaCl2, 0.005% Brij, and 1% DMSO.

MMP-9 = target: T2, MMP-9 (Homo sapiens, UniProt P14780); test: Thiopeptilide MMP-9 Inhibition Assay; format: biochemical; settings: for IC50: pH 6.5, x (n) = average of n determinations, read-out: MMP-9: Thiopep. IC50; for inhibition at 5 µM: read-out: MMP-9: Thiopep. % inhibition
T2 construct: from tissue; host or cells: human polymorphonuclear leukocytes (PMN) from whole blood (New York Blood Center), PMA-stimulated supernatant
T2 sequence (P14780 107-707 limits assumed): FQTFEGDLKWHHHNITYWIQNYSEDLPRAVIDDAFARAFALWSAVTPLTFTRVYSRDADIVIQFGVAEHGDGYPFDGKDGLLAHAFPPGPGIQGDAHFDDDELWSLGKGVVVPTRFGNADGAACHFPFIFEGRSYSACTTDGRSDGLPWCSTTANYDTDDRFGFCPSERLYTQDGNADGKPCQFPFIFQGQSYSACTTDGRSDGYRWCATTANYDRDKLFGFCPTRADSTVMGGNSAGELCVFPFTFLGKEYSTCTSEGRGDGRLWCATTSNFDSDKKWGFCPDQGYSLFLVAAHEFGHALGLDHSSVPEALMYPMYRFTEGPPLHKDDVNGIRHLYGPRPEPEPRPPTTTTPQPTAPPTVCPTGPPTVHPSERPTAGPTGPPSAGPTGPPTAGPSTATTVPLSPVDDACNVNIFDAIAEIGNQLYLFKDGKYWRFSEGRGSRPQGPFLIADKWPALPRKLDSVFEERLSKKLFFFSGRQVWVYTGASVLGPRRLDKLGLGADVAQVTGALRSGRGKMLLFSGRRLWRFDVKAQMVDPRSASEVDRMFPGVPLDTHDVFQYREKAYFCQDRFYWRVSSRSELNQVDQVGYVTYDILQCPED

| Compound | inhibition at 5 µM (MMP-3; at 5 μM) [%] | IC50 (MMP-9) [nM] | IC50 (MMP-3) [nM] | inhibition at 5 µM (MMP-9) [%] | MMP-3 Thiopep. % inhibition (MMP-3; at 5 μM) [%] |
| --- | --- | --- | --- | --- | --- |
| CC1=CC[C@@H](C(=O)c2ccc(-c3ccc(Cl)cc3)cc2)[C@H](C(=O)O)C1 (relative stereo) [Example 329, 3-Cyclohexene-1-carboxylic acid, 6-[(4'-chloro[1,1'-biphenyl]-4-yl)carbonyl]-3-methyl-, trans-] | 58 | 8000 | – | – | – |
| O=C(CC(CSc1ccc(O)cc1)C(=O)O)c1ccc(-c2ccc(Cl)cc2)cc1 (stereo not drawn) [Example 204, [1,1'-Biphenyl]-4-butanoic acid, 4'-chloro-α-[[(4-hydroxyphenyl)thio]methyl]-γ-oxo-] | – | 215 | 213 | – | – |
| C[C@@H](C(=O)O)[C@@H](C)C(=O)c1ccc(-c2ccc(Cl)cc2)cc1 (relative stereo) [Example 283, [1,1'-Biphenyl]-4-butanoic acid, 4'-chloro-α,β-dimethyl-γ-oxo-, (R*,R*)-] | – | 7000 | 2400 | – | – |
| O=C(O)CCC(=O)c1ccc(-c2ccc(Br)cc2)cc1 [Example 7, [1,1'-Biphenyl]-4-butanoic acid, 4'-bromo-γ-oxo-, reference compound] | – | 2100 | 690 | – | – |
| O=Cc1ccc(-c2ccc(C(=O)CC(CCCc3ccccc3)C(=O)O)cc2)cc1 (stereo not drawn) [Example 78, [1,1'-Biphenyl]-4-butanoic acid, 4'-formyl-γ-oxo-α-(3-phenylpropyl)-] | – | 1200 | 310 | – | – |
| O=C(O)CCc1ccc(SCC(CC(=O)c2ccc(-c3ccc(Cl)cc3)cc2)C(=O)O)cc1 (stereo not drawn) [Example 225, [1,1'-Biphenyl]-4-butanoic acid, α-[[[4-(2-carboxyethyl)phenyl]thio]methyl]-4'-chloro--γ-oxo-] | – | 550 | 310 | – | – |
| O=C(O)CCCC(=O)c1ccc(-c2ccc(Cl)cc2)cc1 [Example 333, [1,1'-Biphenyl]-4-pentanoic acid, 4'-chloro-δ-oxo-, reference compound] | 62 | – | – | 25 | – |
| O=C(CC(Cc1ccc(-c2ccccc2)cc1)C(=O)O)c1ccc(-c2ccc(Cl)cc2)cc1 (stereo not drawn) [Example 182, [1,1'-Biphenyl]-4-butanoic acid, α-([1,1'-biphenyl]-4-ylmethyl)-4'-chloro-γ-oxo-] | 7 | – | – | 17 | – |
| O=C(CC(CSC(=O)c1ccccc1)C(=O)O)c1ccc(-c2ccc(Cl)cc2)cc1 (stereo not drawn) [Example 202, [1,1'-Biphenyl]-4-butanoic acid, α-[(benzoylthio)methyl]-4'-chloro-γ-oxo-] | – | 500 | 250 | – | – |
| O=C(O)/C=C/C(=O)c1ccc(Oc2ccc(Cl)cc2)cc1 [Example 30, 2-Butenoic acid, 4-[4-(4-chlorophenoxy)penyl]-4-oxo-, (E)-, reference compound] | 8 | – | – | 25 | – |
| O=C(c1ccc(-c2ccc(Cl)cc2)cc1)[C@H]1CCCC[C@H]1C(=O)O (relative stereo) [Example 286, Cyclohexanecarboxylic acid, 2-[(4'-chloro[1,1'-biphenyl]-4-yl)carbonyl]-, trans-] | 19 | – | – | 0 | – |
| O=Cc1ccccc1-c1ccc(C(=O)CC(CCCc2ccccc2)C(=O)O)cc1 (stereo not drawn) [Example 82, [1,1'-Biphenyl]-4-butanoic acid, 2'-formyl-γ-oxo-α-(3-phenylpropyl)-] | 23 | – | – | 9 | – |
| O=C(CC(CCCN1C(=O)c2ccccc2C1=O)C(=O)O)c1ccc(-c2ccc(Cl)cc2)cc1 (stereo not drawn) [Example 262, 2H-Isoindole-2-pentanoic acid, α-[2-(4'-chloro[1,1'-biphenyl]-4-yl)-2-oxoethyl]-1,3-dihydro-1,3-dioxo-] | – | 76 | 95 | – | – |
| CCN(CC)CCCC(CC(=O)c1ccc(-c2ccc(Cl)cc2)cc1)C(=O)O (stereo not drawn) [Example 265, [1,1'-Biphenyl]-4-butanoic acid, 4'-chloro-α-[3-(diethylamino)propyl]-γ-oxo-, trifluoroacetate] | – | – | 2900 | 42 | – |
| Cc1ccccc1S[C@H]1CC[C@@H](C(=O)c2ccc(-c3ccc(Cl)cc3)cc2)[C@H]1C(=O)O (relative stereo) [Example 305, Cyclopentanecarboxylic acid, 2-[(4'-chloro[1,1'-biphenyl]-4-yl)carbonyl]-5-[(2-methylphenyl)thio]-, (1α,2α,5α)-] | – | 1800 | 470 | – | – |
| CC1=C(C)C[C@@H](C(=O)c2ccc(-c3ccc(Cl)cc3)cc2)[C@H](C(=O)O)C1 (relative stereo) [Example 327, 3-Cyclohexene-1-carboxylic acid, 6-[(4'-chloro[1,1'-biphenyl]-4-yl)carbonyl]-3,4-dimethyl-, trans-] | 55 | 12000 | – | – | – |
| CC(C)CC(CC(=O)c1ccc(-c2ccc(C#N)cc2)cc1)C(=O)O (stereo not drawn) [Example 46, [1,1'-Biphenyl]-4-butanoic acid, 4'-cyano-α-(2-methylpropyl)-γ-oxo-] | – | 4000 | 700 | – | – |

| Compound | inhibition at 5 µM (MMP-3; at 5 μM) [%] | IC50 (MMP-9) [nM] | IC50 (MMP-3) [nM] | inhibition at 5 µM (MMP-9) [%] | MMP-3 Thiopep. % inhibition (MMP-3; at 5 μM) [%] |
| --- | --- | --- | --- | --- | --- |
| O=C(CC(CCCc1ccc(Cl)cc1)C(=O)O)c1ccc(-c2ccc(Cl)cc2)cc1 (stereo not drawn) [Example 185, [1,1'-Biphenyl]-4-butanoic acid, 4'-chloro-α[3-(4-chlorophenyl)propyl]-γ-oxo-] | – | – | 220 | 31 | – |
| O=C(CC(CCCCCc1ccccc1)C(=O)O)c1ccc(-c2ccc(Cl)cc2)cc1 (stereo not drawn) [Example 180, [1,1'-Biphenyl]-4-butanoic acid, 4'-chloro-γ-oxo-α-(5-phenylpentyl)-] | – | 360 | 270 | – | – |
| O=C(O)C1C2C=CC(CC2)C1C(=O)c1ccc(-c2ccc(Cl)cc2)cc1 (centres unmarked) [Example 330] | 9 | – | – | 16 | – |
| COc1cccc(SCC(CC(=O)c2ccc(-c3ccc(Cl)cc3)cc2)C(=O)O)c1 (stereo not drawn) [Example 234, [1,1'-Biphenyl]-4-butanoic acid, 4'-chloro-α-[[(3-methoxyphenyl)thio]methyl]-γ-oxo-] | – | 600 | 144 | – | – |
| CC(=O)SCC(CC(=O)c1ccc(C)cc1)C(=O)O (stereo not drawn) [Example 253, Benzenebutanoic acid, α-[(acetylthio)methyl]-4-methyl-γ-oxo-, reference compound] | 0 | – | – | 21 | – |
| O=C(CC(CCCCc1ccccc1)C(=O)O)c1ccc(-c2ccc(Cl)cc2)cc1 (stereo not drawn) [Example 179, [1,1'-Biphenyl]-4-butanoic acid, 4'-chloro-γ-oxo-α-(4-phenylbutyl)-] | – | 200 | 160 | – | – |
| O=C(CC(Sc1ccccc1)C(=O)O)c1ccc(-c2ccc(Cl)cc2)cc1 (stereo not drawn) [Example 251, [1,1'-Biphenyl]-4-butanoic acid, 4'-chloro-γ-oxo-α-(phenylthio)-] | – | 7500 | 640 | – | – |
| CC(C)CC(CC(=O)O)C(=O)c1ccc(-c2ccc(Cl)cc2)cc1 (single isomer, unassigned) [Example 5, 5-methyl-3-[oxo-(4'-chloro-4-biphenyl)methyl]hexanoic acid] | 11 | – | – | 19 | – |
| CC(C)CC(CC(=O)c1ccc(Cl)cc1)C(=O)O (stereo not drawn) [Example 27, Benzenebutanoic acid, 4-chloro-α-(2-methylpropyl)-γ-oxo-, reference compound] | 11 | – | – | 15 | – |
| CC(C)Oc1ccc(-c2ccc(C(=O)CC(CCCc3ccccc3)C(=O)O)cc2)cc1 (stereo not drawn) [Example 91, [1,1'-Biphenyl]-4-butanoic acid, 4'-(1-methylethoxy)-γ-oxo-α-(3-phenylpropyl)-] | – | 700 | 174 | – | – |
| CCCCCc1ccc(-c2ccc(C(=O)CC(CC(C)C)C(=O)O)cc2)cc1 (stereo not drawn) [Example 22, [1,1'-Biphenyl]-4-butanoic acid, α-(2-methylpropyl)-γ-oxo-4'-pentyl-] | – | 1200 | 790 | – | – |
| CC(C)CC(CC(=O)c1ccc(-c2ccccc2Cl)cc1)C(=O)O (stereo not drawn) [Example 18, [1,1'-Biphenyl]-4-butanoic acid, 2'-chloro-α-(2-methylpropyl)-γ-oxo-] | 0.3 | – | – | 9 | – |
| O=C(CC(CCCc1ccccc1)C(=O)O)c1ccc(-c2ccc(-c3nnn[nH]3)cc2)cc1 (stereo not drawn) [Example 57, [1,1'-Biphenyl]-4-butanoic acid, γ-oxo-α-(3-phenylpropyl)-4'-(1H-tetrazol-5-yl)-] | 16 | – | – | 22 | – |
| CC(C)CC(CC(=O)c1ccc(-c2ccc(Cl)c(Cl)c2)cc1)C(=O)O (stereo not drawn) [Example 64, [1,1'-Biphenyl]-4-butanoic acid, 3',4'-dichloro-α-(2-methylpropyl)-γ-oxo-] | – | – | 300 | 29 | – |
| O=C(CC(CCCc1ccccc1)C(=O)O)c1ccc(-c2ccc(Cl)cc2)s1 (stereo not drawn) [Example 349, 2-Thiophenebutanoic acid, 5-(4-chlorophenyl)-γ-oxo-α-(3-phenylpropyl)-] | – | 330 | 550 | – | – |
| CCc1ccc(SCC(CC(=O)c2ccc(-c3ccc(Cl)cc3)cc2)C(=O)O)cc1 (stereo not drawn) [Example 212, [1,1'-Biphenyl]-4-butanoic acid, 4'-chloro-α-[[(4-ethylphenyl)thio]methyl]-γ-oxo-] | – | 390 | 650 | – | – |
| CC(C)CC1CC(c2ccc(-c3ccc(Cl)cc3)cc2)OC1=O (centres unmarked) [Example 36, 2(3H)-Furanone, 5-(4'-chloro[1,1'-biphenyl]-4-yl)dihydro-3-(2-methylpropyl)-, reference compound] | – | – | – | 0 | 0 |
